Assay results reported in the NIST ThermoML archive (doi:10.1016/j.jct.2015.02.011).

Test: xn = mol fraction of the nth substance listed
Details: 100.7 kPa, Liquid; for speed of sound: Frequency=3 MHz, Sing-around technique in a fixed-path interferometer; for mass density: Vibrating tube method

CCCCn1cc[n+](C)c1.F[P-](F)(F)(F)(F)F [1-butyl-3-methylimidazolium hexafluorophosphate] + C1CCOC1
Details | mass density [kg/m3] | speed of sound [m/s]
293.15 K, x1 = 0.0871 | 995.952 | 1325.2
293.15 K, x1 = 0.1801 | 1081.84 | 1346.3
293.15 K, x1 = 0.2893 | 1156.12 | 1370.2
293.15 K, x1 = 0.3939 | 1209.17 | 1390.1
293.15 K, x1 = 0.4994 | 1250.52 | 1405.6
293.15 K, x1 = 0.5709 | 1274.06 | 1414.3
293.15 K, x1 = 0.7163 | 1313.42 | 1431.1
293.15 K, x1 = 0.8069 | 1333.96 | 1439.1
293.15 K, x1 = 0.9012 | 1352.78 | 1447.9
293.15 K, x1 = 1 | 1370.41 | 1454.6
298.15 K, x1 = 0.0871 | 993.083 | 1305.7
298.15 K, x1 = 0.1801 | 1078.67 | 1329.4
298.15 K, x1 = 0.2893 | 1153.55 | 1354.8
298.15 K, x1 = 0.3939 | 1206.51 | 1375.2
298.15 K, x1 = 0.4994 | 1247.95 | 1391.7
298.15 K, x1 = 0.5709 | 1270.99 | 1400.3
298.15 K, x1 = 0.7163 | 1309.95 | 1419.2
298.15 K, x1 = 0.8069 | 1330.6 | 1428.8
298.15 K, x1 = 0.9012 | 1349.01 | 1436.5
298.15 K, x1 = 1 | 1366.26 | 1442.3
303.15 K, x1 = 0.0871 | 989.595 | 1286.1
303.15 K, x1 = 0.1801 | 1076.18 | 1313.5
303.15 K, x1 = 0.2893 | 1151.06 | 1337.9
303.15 K, x1 = 0.3939 | 1204.02 | 1359.3
303.15 K, x1 = 0.4994 | 1245.06 | 1375.7
303.15 K, x1 = 0.5709 | 1268.4 | 1386.6
303.15 K, x1 = 0.7163 | 1306.96 | 1406.2
303.15 K, x1 = 0.8069 | 1327.01 | 1416.4
303.15 K, x1 = 0.9012 | 1345.27 | 1425.1
303.15 K, x1 = 1 | 1362.13 | 1430.2
308.15 K, x1 = 0.0871 | 986.865 | 1264.2
308.15 K, x1 = 0.1801 | 1073.65 | 1294.6
308.15 K, x1 = 0.2893 | 1148.53 | 1322.9
308.15 K, x1 = 0.3939 | 1201.49 | 1344.4
308.15 K, x1 = 0.4994 | 1242.03 | 1362.9
308.15 K, x1 = 0.5709 | 1265.07 | 1374.2
308.15 K, x1 = 0.7163 | 1303.84 | 1394.4
308.15 K, x1 = 0.8069 | 1323.78 | 1404.5
308.15 K, x1 = 0.9012 | 1341.44 | 1414.8
308.15 K, x1 = 1 | 1357.86 | 1418.4
313.15 K, x1 = 0.0871 | 983.099 | 1243.5
313.15 K, x1 = 0.1801 | 1072.08 | 1276.9
313.15 K, x1 = 0.2893 | 1145.97 | 1306.3
313.15 K, x1 = 0.3939 | 1198.83 | 1329.7
313.15 K, x1 = 0.4994 | 1239.66 | 1347.2
313.15 K, x1 = 0.5709 | 1261.91 | 1358.4
313.15 K, x1 = 0.7163 | 1300.27 | 1380.9
313.15 K, x1 = 0.8069 | 1320.11 | 1392.8
313.15 K, x1 = 0.9012 | 1337.58 | 1398.9
313.15 K, x1 = 1 | 1353.88 | 1406.7
318.15 K, x1 = 0.0871 | 979.072 | 1220.9
318.15 K, x1 = 0.1801 | 1069.07 | 1258.4
318.15 K, x1 = 0.2893 | 1144.86 | 1289.6
318.15 K, x1 = 0.3939 | 1197.02 | 1313.9
318.15 K, x1 = 0.4994 | 1238.26 | 1333
318.15 K, x1 = 0.5709 | 1259.52 | 1344
318.15 K, x1 = 0.7163 | 1297.6 | 1367.3
318.15 K, x1 = 0.8069 | 1316.65 | 1380.3
318.15 K, x1 = 0.9012 | 1333.97 | 1389.5
318.15 K, x1 = 1 | 1349.88 | 1395.2
323.15 K, x1 = 0.0871 | 974.942 | 1200.6
323.15 K, x1 = 0.1801 | 1067.03 | 1239.9
323.15 K, x1 = 0.2893 | 1143.59 | 1272.2
323.15 K, x1 = 0.3939 | 1195.57 | 1295.6
323.15 K, x1 = 0.4994 | 1235.58 | 1319.5
323.15 K, x1 = 0.5709 | 1256.95 | 1330.6
323.15 K, x1 = 0.7163 | 1294.51 | 1355.4
323.15 K, x1 = 0.8069 | 1312.86 | 1368.5
323.15 K, x1 = 0.9012 | 1329.92 | 1378.6
323.15 K, x1 = 1 | 1345.57 | 1384.1
